{
  "source": "patent US20140228329A1",
  "about": "“USE OF 25-HYDROXY VITAMIN D3 TO PROMOTE PHOSPHOROUS UTILISATION IN RUMINANTS” (DSM IP ASSETS B.V., priority 2011, published 2014)",
  "key": {"[1]": {"test_system": "cattle", "experiment": "Low Phosphorous diet experiment in cattle: phosphorous in diet, faeces and urine (P balance)", "type": "in vivo", "procedure": "(§1) In an experimental cattle farm, two groups of animals were selected for the following experiment with a low Phosphorous diet.\n(§2) One group received the control diet which was the standard roughage diet without the supplementation of 25-hydroxy-vitamin D3. The other group received the experimental diet which was the standard roughage diet supplemented with 2,000 μg 25-hydroxy-vitamin D3 per head/day\nAdditionally the phosphorous concentration in g/day was measured or/calculated in the diet, faeces and urine."}, "[2]": {"test_system": "cattle", "experiment": "Low Phosphorous diet experiment in cattle: blood plasma phosphorous concentration", "type": "in vivo", "conditions": "cattle on low Phosphorous roughage diet, 2,000 μg 25-hydroxy-vitamin D3 per head/day vs control diet; measured after 1, 11, 12, 13 and 14 days; effect at least after 10 days (FIG. 1)", "procedure": "as §1, §2\nAfter 1, 11, 12, 13 and 14 days the blood plasma concentration of phosphorous was measured by standard method."}, "[3]": {"conditions": "low Phosphorous roughage diet, 2,000 μg 25-hydroxy-vitamin D3 per head/day, NS vs control"}, "[4]": {"conditions": "low Phosphorous roughage diet, 2,000 μg 25-hydroxy-vitamin D3 per head/day, P < 0.05 vs control"}},
  "data": [
    {"smiles": "C=C1CC[C@H](O)C/C1=C/C=C1\\CCC[C@]2(C)[C@@H]([C@H](C)CCCC(C)(C)O)CC[C@@H]12", "note": "[25OH-D3, 25-hydroxy vitamin D3]", "values": [
      {"measurement": "P excretion by the animal", "setting": "[1]; low Phosphorous diet, after 25-OH D3 supplementation vs control", "result": "significant decrease"},
      {"measurement": "P (g/day) Feed", "setting": "[1]; [3]", "result": 26.36, "unit": "g/day"},
      {"measurement": "P (g/day) Urine", "setting": "[1]; [3]", "result": 1.12, "unit": "g/day"},
      {"measurement": "P (g/day) Faeces", "setting": "[1]; [4]", "result": 17.21, "unit": "g/day"},
      {"measurement": "P (g/day) Retained", "setting": "[1]; [4]", "result": 8.03, "unit": "g/day"},
      {"measurement": "phosphorous concentration in blood plasma", "setting": "[2]", "result": "significant increase"}
    ]}
  ]
}
